From paper PMC10250618, “Synthesis, structure-activity relationships and biological evaluation of benzimidazole derived sulfonylurea analogues as a new class of antagonists of P2Y1 receptor” (Frontiers in Pharmacology, 2023)

Key:
[1] = target: T1, h-P2Y2 (Homo sapiens, UniProt P41231); assay: Calcium mobilization assay, h-P2Y2 transfected 1321N1 astrocytoma cells; type: cell-based; details: 500 μM ATP
T1 construct: host or cells: human 1321N1 astrocytoma cells, stably transfected
Experimental: (§1) Dr. Gary A. Weisman provided human-1321N1 astrocytoma cells that had been transfected by the tP2Y1R, hP2Y2R, hP2Y4R, and rP2Y6R and untransfected 1321N1 astrocytoma cells (University of Missouri Mo., Bond Life Science Center). The DMEM Dulbecco’s Modified Eagle -Medium (Gibco) was added in flasks to cultivate the cell line. 10% of the Fetal bovine serum was also added to the media together with 500 μg/mL of Geneticin (G418) and 1% of the Pen/Strep. The cells in T-75 flask were then cultured and incubated in a CO2 incubator which was maintained at (5%) and 37°C temperature until 90% of the cells were confluent. Throughout the experiment, cells were periodically checked for the confluency and strictly watched for the microbial contamination.
(§2) The FLUOstar Galaxy (BMG LABTECH GmbH, Ortenberg, Germany) microplate reader with two injectors was used to measure the Ca^2+ fluorescence of synthetic compounds. For this assay, 1321N1 transfected cells (t-P2Y1, h-P2Y2, h-P2Y4, and r-P2Y6) were cultured in T-75 flask. When cells reached the confluency of 80%–90%, they were washed with PBS and then Trypsin was added. After trypsinization for 3 min, 20,000 cells/well were allowed to seed in a black wall and 96 well clear bottom plate which was coated with Poly-D-Lysine and allowed to incubate for 24 h in 37°C, 5% CO2 incubator. After incubation, 200 μL culture media was changed with 100 μL HBSS containing Fura-2 AM which is calcium chelating dye and allowed the plate to incubate for 45 min in dark at temp of 37°C in incubator which is maintained with carbon dioxide (5% CO2). After incubation for 45 min, synthesized molecules were added to HBSS washed cells in each well of 96 well plate and re-incubated for 30 min at 37°C. In next step, injection of the endogenous ligand such as ADP through the injector was followed by excitation and emission measurements of Fura-2 AM at 380/520 nm and 340/520. Final volume of the assay per well 200 μL. IC50 values were computed for the compounds displaying more than 50% of activity using Prism 5.0 software (Graph Pad., Inc., San Diego. California, United States) by using analysis i.e., nonlinear regression ([Kassack et al., 2002]; [Ullmann et al., 2005]).

[2] = target: T2, h-P2Y4 (Homo sapiens, UniProt P51582); assay: Calcium mobilization assay, h-P2Y4 transfected 1321N1 astrocytoma cells; type: cell-based; details: final conc of 100 μM; 500 μM UTP
T2 construct: host or cells: human 1321N1 astrocytoma cells, stably transfected
Experimental: as §1, §2

[3] = test system: H-1321N1 Cell Line; assay: MTT assay, non-transfected 1321N1 astrocytoma cells; type: cell-based, human; details: at 50 µM; non-transfected astrocytoma 1321N1 cells; triplicate
Experimental: (§3) A 96-well plate was used to plate 20,000 human 1321N1 astrocytoma cells and allowed for incubation for 24 h at temp of 37°C in CO2 (5%) incubator. Next to this, the prepared culture media was changed to media which was free from FBS, the test compounds were added and the incubation process was repeated. After incubation of 24 h, the serum free media from the wells was discarded, and 100 μL of the reagent i.e., MTT reagent was pipetted. Plate was then additionally incubated at 37°C for 4 h. Utilizing a microplate reader, absorbance was determined at 570 nm and 630 nm for calculation of cell viability (FLUOstarOmega Microplate Reader-BMG LABTECH GmbH, Ortenberg, Germany) ([Sauer et al., 2009]).

[4] = test system: HeLa Cell Line; assay: MTT assay, HeLa; type: cell-based; details: at 50 µM; triplicate
[5] = target: T3, r-P2Y6 (Rattus norvegicus, UniProt Q63371); assay: Calcium mobilization assay, r-P2Y6 transfected 1321N1 astrocytoma cells; type: cell-based
T3 construct: host or cells: human 1321N1 astrocytoma cells, stably transfected
Experimental: as §1, §2

[6] = test system: HEK-293 Cell Line; assay: MTT assay, HEK-293; type: cell-based; details: at 50 µM; triplicate
[7] = target: T4, t-P2Y1 (Meleagris gallopavo, UniProt P49652); assay: Calcium mobilization assay, t-P2Y1 transfected 1321N1 astrocytoma cells; type: cell-based; details: 100 μM ADP
T4 construct: host or cells: human 1321N1 astrocytoma cells, stably transfected
Experimental: as §1, §2

[8] = target: P2Y1; details: Figure 1, reported antagonist; cited from earlier work
[9] = MTT assay, non-transfected 1321N1 astrocytoma cells; type: cell-based, human; details: human, non-transfected 1321N1 astrocytoma cells; at 50 µM; non-transfected astrocytoma 1321N1 cells; triplicate; read-out: H-1321N1 Cell Line (%cytotoxicity ±SEM)
Experimental: as §3

[10] = test system: hP2Y2; design: method as in Bano et al., 2021; details: Figure 1, reported antagonist; ref Bano et al., 2021; cited from earlier work
[11] = MTT assay, HeLa; type: cell-based; details: human, HeLa cells; at 50 µM; triplicate; read-out: HeLa Cell Line (%cytotoxicity ±SEM)
[12] = MTT assay, HEK-293; type: cell-based; details: human, HEK-293 cells; at 50 µM; triplicate; read-out: HEK-293 Cell Line (%cytotoxicity ±SEM)

T3 sequence (Q63371 whole entry): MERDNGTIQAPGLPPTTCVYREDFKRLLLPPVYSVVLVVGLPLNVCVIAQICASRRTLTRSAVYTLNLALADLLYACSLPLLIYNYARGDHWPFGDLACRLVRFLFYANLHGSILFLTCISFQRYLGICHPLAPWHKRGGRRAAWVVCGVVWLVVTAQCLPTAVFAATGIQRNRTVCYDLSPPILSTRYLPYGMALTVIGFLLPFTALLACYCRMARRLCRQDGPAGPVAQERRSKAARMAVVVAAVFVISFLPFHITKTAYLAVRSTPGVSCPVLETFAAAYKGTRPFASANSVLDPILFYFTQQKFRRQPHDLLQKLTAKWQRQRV
T1 sequence (P41231 whole entry): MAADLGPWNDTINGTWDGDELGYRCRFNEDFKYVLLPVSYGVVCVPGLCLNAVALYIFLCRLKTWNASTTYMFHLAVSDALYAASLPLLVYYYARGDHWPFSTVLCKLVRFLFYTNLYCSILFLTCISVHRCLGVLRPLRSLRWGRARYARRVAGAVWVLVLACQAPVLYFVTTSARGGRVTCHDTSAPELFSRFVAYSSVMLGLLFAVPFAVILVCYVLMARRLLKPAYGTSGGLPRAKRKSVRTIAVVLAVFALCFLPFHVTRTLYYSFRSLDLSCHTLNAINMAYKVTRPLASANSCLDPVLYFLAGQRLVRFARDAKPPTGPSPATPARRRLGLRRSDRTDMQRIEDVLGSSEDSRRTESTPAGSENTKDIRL
T4 sequence (P49652 whole entry): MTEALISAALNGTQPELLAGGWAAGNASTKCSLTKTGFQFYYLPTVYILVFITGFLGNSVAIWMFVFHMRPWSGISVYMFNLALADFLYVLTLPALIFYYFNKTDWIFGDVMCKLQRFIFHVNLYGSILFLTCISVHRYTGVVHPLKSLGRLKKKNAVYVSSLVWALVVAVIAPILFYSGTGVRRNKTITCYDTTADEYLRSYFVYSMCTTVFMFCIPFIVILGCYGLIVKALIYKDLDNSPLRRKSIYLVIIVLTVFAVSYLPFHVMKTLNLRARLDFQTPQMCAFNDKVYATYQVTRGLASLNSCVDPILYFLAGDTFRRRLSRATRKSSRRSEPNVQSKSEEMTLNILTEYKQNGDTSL
T2 sequence (P51582 whole entry): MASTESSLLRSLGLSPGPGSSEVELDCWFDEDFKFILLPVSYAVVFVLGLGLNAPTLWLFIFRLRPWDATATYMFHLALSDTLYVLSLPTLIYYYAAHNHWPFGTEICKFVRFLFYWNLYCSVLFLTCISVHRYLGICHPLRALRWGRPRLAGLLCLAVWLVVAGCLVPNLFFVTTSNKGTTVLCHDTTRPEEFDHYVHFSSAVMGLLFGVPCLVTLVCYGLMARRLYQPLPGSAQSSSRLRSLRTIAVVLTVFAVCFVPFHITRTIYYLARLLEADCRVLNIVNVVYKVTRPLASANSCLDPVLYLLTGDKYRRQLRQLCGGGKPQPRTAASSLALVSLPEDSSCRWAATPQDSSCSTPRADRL

2-Amino-5-nitro-N-((4-nitrophenyl)sulfonyl)-1H-benzo [d]imidazole-1-carbox amide [1d]
% Inhibition h-P2Y2 ([1]; final conc of 100 μM): 41% | % Inhibition h-P2Y4 [2]: 48% | H-1321N1 Cell Line (%cytotoxicity ±SEM) [3]: 15.9 ± 0.3% | HeLa Cell Line (%cytotoxicity ±SEM) [4]: 28.3 ± 0.4% | r-P2Y6 % Inhibition ([5]; Supplementary Table 2): 39% | % Inhibition r-P2Y6 ([5]; final conc of 100 μM, 100 μM of UDP): 39% | HEK-293 Cell Line (%cytotoxicity ±SEM) [6]: 20.3 ± 0.6% | % Inhibition t-P2Y1 ([7]; final conc of 100 μM): 43%

CNc1nc(I)nc2c1ncn2C1CC(OP(=O)(O)O)C2(COP(=O)(O)O)CC12 (stereo not drawn) [MRS2500]
Ki [8]: 0.00078 µM

Cc1ccc(C(=O)Nc2ccc(S(=O)(=O)O)c3cc(S(=O)(=O)O)cc(S(=O)(=O)O)c23)cc1NC(=O)c1cccc(NC(=O)Nc2cccc(C(=O)Nc3cc(C(=O)Nc4ccc(S(=O)(=O)O)c5cc(S(=O)(=O)O)cc(S(=O)(=O)O)c45)ccc3C)c2)c1 [Suramin, reference compound]
IC50 ([1]; Ca2+ mobilization inhibition, transfected 1321N1 cells, read-out: IC50 ± SEM h-P2Y2): 3.31 ± 0.08 µM | cytotoxicity at 24 h, 50 µM [9]: 12.3 ± 0.2% | IC50 [10]: 48 µM | cytotoxicity at 24 h, 50 µM [11]: 37.5 ± 0.2% | cytotoxicity at 24 h, 50 µM [12]: 11.1 ± 0.2% | IC50 ([7]; Ca2+ mobilization inhibition, transfected 1321N1 cells, read-out: IC50 ± SEM t-P2Y1): 0.15 ± 0.01 µM
